In PubChem BioAssay (NCI):
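Method: 48-hour compound exposure of cells in 96-well plates, five concentrations, linear interpolation of endpoints. Here, GI50 denotes the concentration required for 50% inhibition of growth. The concentration for full growth arrest is given as TGI.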

Columns and labels:
Assay in all cases: growth of human tumour cells (NCI), 48 h
MCF7 breast = system: MCF7 breast
BT-549 breast = system: BT-549 breast
OVCAR-8 ovarian = system: OVCAR-8 ovarian
ACHN renal = system: ACHN renal
KM12 colon = system: KM12 colon
CAKI-1 renal = system: CAKI-1 renal
SF-539 CNS = system: SF-539 CNS
UACC-257 melanoma = system: UACC-257 melanoma
NCI-H522 lung = system: NCI-H522 lung
OVCAR-4 ovarian = system: OVCAR-4 ovarian

SMILES	GI50 (MCF7 breast)	TGI (MCF7 breast)	GI50 (BT-549 breast)	TGI (BT-549 breast)	GI50 (OVCAR-8 ovarian)	TGI (OVCAR-8 ovarian)	GI50 (ACHN renal)	TGI (ACHN renal)	GI50 (KM12 colon)	TGI (KM12 colon)	TGI (CAKI-1 renal)	TGI (SF-539 CNS)	TGI (UACC-257 melanoma)	TGI (NCI-H522 lung)	TGI (OVCAR-4 ovarian)	GI50 (NCI-H522 lung)	GI50 (CAKI-1 renal)	GI50 (UACC-257 melanoma)	GI50 (OVCAR-4 ovarian)
CCN1CCN(Cc2ccc(NC(=O)Nc3ccc(-n4ccc5c(NC(=O)c6ccccc6)nccc54)cc3)cc2C(F)(F)F)CC1	0.756 µM	2.08 µM	1.43 µM	2.77 µM	0.968 µM	4.92 µM	0.907 µM	2.11 µM	0.0271 µM	1.45 µM	–	–	–	–	–	–	–	–	–
N#Cc1nc(C2CCC(=O)O2)oc1N (stereo not drawn)	–	> 100 µM	–	> 100 µM	–	> 100 µM	–	> 100 µM	–	> 100 µM	> 100 µM	> 100 µM	> 100 µM	–	–	–	–	–	–
Clc1ccc(OCc2nnc(COc3ccc(OCc4nnc(COc5ccc(Cl)cc5Cl)o4)c(Cl)c3)o2)c(Cl)c1	–	> 100 µM	–	> 100 µM	–	> 100 µM	–	> 100 µM	–	> 100 µM	54.9 µM	–	> 100 µM	38 µM	–	–	–	–	–
O=P1(C(O)/C=C/c2ccccc2)N(Cc2ccccc2)[C@@H]2CCCC[C@H]2N1Cc1ccccc1 (stereo partly drawn)	–	15.1 µM	–	34.2 µM	–	13.2 µM	–	37.1 µM	–	19.5 µM	65.5 µM	–	16.2 µM	12.1 µM	26.5 µM	–	–	–	–
CCCCN1C(=O)CC2[C@@H]3CCc4cc(OC)ccc4C3CC[C@]2(C)C1=O (stereo partly drawn)	–	> 10 µM	–	> 10 µM	–	> 10 µM	–	> 10 µM	–	> 10 µM	> 10 µM	> 10 µM	> 10 µM	–	> 10 µM	–	–	–	–
Cc1cn(CCCCCOC(=O)NC(CCCNC(N)=O)C(=O)O)c(=O)[nH]c1=O (stereo not drawn)	–	> 100 µM	–	> 100 µM	–	> 100 µM	–	> 100 µM	–	> 100 µM	> 100 µM	> 100 µM	> 100 µM	–	> 100 µM	–	–	–	–
O=P(OCc1ccccc1)(OCc1ccccc1)C(O)/C=C/c1ccccc1 (stereo not drawn)	–	> 100 µM	–	71.2 µM	–	55.9 µM	–	95.9 µM	–	43.1 µM	98.7 µM	–	38.6 µM	57.7 µM	56.1 µM	–	–	–	–
Nc1c(S(N)(=O)=O)cc(S(N)(=O)=O)cc1S(N)(=O)=O	–	> 100 µM	–	> 100 µM	–	> 100 µM	–	> 100 µM	–	> 100 µM	> 100 µM	–	> 100 µM	> 100 µM	> 100 µM	–	–	–	–
COC(=O)C1=C(C(=O)OC)SC(=C2SC3=C(SC(=C4SCCS4)S3)S2)S1	–	> 100 µM	–	> 100 µM	–	> 100 µM	–	> 100 µM	–	> 100 µM	> 100 µM	–	> 100 µM	> 100 µM	–	–	–	–	–
COc1cc2[nH]c(=O)c3cc(-c4ccccc4)cc4c(Cl)nc(c1OC)c2c43	–	7.71 µM	–	> 67 µM	–	98.4 µM	–	77.6 µM	–	> 100 µM	71 µM	–	21.6 µM	> 89.2 µM	> 64.4 µM	–	–	–	–
Oc1c(OCc2nnc(CCCCCCCCc3nnc(COc4ccc5ccccc5c4O)o3)o2)ccc2ccccc12	–	> 100 µM	–	> 100 µM	–	–	–	> 100 µM	–	> 100 µM	> 100 µM	–	> 100 µM	> 100 µM	> 100 µM	–	–	–	–
COc1ccc(C2=C(Cl)C(=O)O/C2=C\c2ccc(OC)c(Br)c2)cc1Cl	–	46.9 µM	–	–	–	51.8 µM	–	40.2 µM	–	> 100 µM	> 100 µM	30.6 µM	> 100 µM	57.5 µM	> 100 µM	–	–	–	–
c1c(N2CCOCC2)ssc1=[N+]1CCOCC1	–	–	–	–	–	> 100 µM	–	> 100 µM	–	> 100 µM	> 100 µM	> 100 µM	> 100 µM	> 100 µM	> 100 µM	–	–	–	–
CC(=O)OC1CC2(O)C(CCC3(C)C(c4ccc(=O)oc4)CCC32O)C2(C)C1=CC(O)C1OC12 (stereo not drawn)	–	0.402 µM	–	–	–	0.258 µM	–	–	–	0.301 µM	0.0968 µM	0.116 µM	0.333 µM	0.0784 µM	0.121 µM	–	–	–	–
O=C1/C(=C/c2ccc(Cl)cc2)CCCc2ccc(F)cc21	8.35 µM	> 100 µM	39.8 µM	> 100 µM	22.8 µM	75.1 µM	27.8 µM	68.5 µM	12.9 µM	34.2 µM	64.5 µM	–	42.9 µM	54.5 µM	51.2 µM	12.2 µM	22.5 µM	16.7 µM	17.5 µM
Cc1nnc2n1-c1ccccc1N(Cc1ccccc1)CC2	–	> 100 µM	–	76.2 µM	–	> 100 µM	–	> 100 µM	–	> 100 µM	> 100 µM	> 100 µM	> 100 µM	–	> 100 µM	–	–	–	–
